Test results from ChEMBL document CHEMBL1129998, “Pharmacological options in the treatment of benign prostatic hyperplasia” (J Med Chem, 1997).
Each block holds one compound with its values, some of them ahead of it.

Columns and labels:
[1] = target: T1, 3-oxo-5-alpha-steroid 4-dehydrogenase 2 (Homo sapiens, UniProt P31213); assay: Binding affinity for human 5-alpha reductase 2 isozyme
T1 sequence (P31213 whole entry): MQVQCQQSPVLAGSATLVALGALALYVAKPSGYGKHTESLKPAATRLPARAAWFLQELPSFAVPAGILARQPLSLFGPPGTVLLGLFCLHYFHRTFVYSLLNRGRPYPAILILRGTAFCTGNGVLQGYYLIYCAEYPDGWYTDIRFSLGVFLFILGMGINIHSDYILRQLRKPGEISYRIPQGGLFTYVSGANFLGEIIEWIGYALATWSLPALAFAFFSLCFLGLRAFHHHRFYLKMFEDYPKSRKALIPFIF

[2] = target: T2, 3-oxo-5-alpha-steroid 4-dehydrogenase 1 (Homo sapiens, UniProt P18405); assay: Binding affinity for human 5 alpha reductase 1 isozyme
T2 sequence (P18405 whole entry): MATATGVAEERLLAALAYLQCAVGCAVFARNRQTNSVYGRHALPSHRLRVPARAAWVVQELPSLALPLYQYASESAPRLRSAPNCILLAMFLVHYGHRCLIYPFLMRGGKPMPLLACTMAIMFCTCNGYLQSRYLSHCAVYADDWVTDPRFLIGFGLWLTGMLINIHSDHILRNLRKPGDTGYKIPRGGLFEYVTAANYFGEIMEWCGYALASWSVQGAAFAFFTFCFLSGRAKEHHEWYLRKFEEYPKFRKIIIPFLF

[3] = Binding affinity on human prostatic 5-alpha reductase isozyme
[4] = target: T3, Steroid 5-alpha-reductase (Rattus norvegicus, UniProt P24008+P31214); assay: Binding affinity on rat 5-alpha reductase isozyme; assay type: protein assay
T3 sequence (P24008 whole entry): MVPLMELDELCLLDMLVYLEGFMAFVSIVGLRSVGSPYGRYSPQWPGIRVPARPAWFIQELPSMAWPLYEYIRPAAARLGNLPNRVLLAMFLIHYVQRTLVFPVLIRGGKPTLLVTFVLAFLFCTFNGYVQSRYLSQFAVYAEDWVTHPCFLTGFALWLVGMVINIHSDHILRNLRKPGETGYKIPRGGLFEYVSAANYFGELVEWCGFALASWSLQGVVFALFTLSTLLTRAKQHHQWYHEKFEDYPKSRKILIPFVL
T3 sequence (P31214 whole entry): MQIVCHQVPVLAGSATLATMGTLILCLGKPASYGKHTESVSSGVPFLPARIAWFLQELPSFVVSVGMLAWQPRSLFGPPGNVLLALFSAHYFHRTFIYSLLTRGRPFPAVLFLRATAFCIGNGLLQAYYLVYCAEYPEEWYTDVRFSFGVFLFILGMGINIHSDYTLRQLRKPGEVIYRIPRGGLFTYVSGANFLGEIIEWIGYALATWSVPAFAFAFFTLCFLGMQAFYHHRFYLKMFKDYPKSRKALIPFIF

[5] = target: T4, Alpha-1A adrenergic receptor (Rattus norvegicus, UniProt P43140); assay: Binding affinity was tested on CEC-pretreated rat hippocampus Alpha-1A adrenergic receptor; assay type: tissue-based
T4 sequence (P43140 whole entry): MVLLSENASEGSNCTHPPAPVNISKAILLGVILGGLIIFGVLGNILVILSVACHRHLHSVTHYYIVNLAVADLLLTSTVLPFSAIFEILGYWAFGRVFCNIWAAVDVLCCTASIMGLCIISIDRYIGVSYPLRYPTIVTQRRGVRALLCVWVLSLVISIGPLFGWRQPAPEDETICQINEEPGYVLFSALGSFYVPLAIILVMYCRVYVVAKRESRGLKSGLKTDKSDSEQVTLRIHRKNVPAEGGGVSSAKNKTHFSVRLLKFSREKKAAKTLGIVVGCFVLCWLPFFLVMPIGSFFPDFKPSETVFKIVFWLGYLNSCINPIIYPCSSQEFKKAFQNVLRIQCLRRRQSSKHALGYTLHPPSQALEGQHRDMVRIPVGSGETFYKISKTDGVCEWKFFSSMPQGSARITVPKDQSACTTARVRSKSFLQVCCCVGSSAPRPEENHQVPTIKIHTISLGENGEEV

Canis familiaris = assay: (§1) In vivo dose (iv) for 50% inhibition of norepinephrine-mediated contraction of proximal urethra (ID50) with the dose (iv) for 25% reduction in systolic blood pressure (ED25) in anesthetized dogs; assay type: functional, Canis lupus familiaris, Artery
[6] = target: T5, Alpha-1B adrenergic receptor (Rattus norvegicus, UniProt P15823); assay: Binding affinity was tested on CEC-pretreated rat liver Alpha-1B adrenergic receptor
T5 sequence (P15823 whole entry): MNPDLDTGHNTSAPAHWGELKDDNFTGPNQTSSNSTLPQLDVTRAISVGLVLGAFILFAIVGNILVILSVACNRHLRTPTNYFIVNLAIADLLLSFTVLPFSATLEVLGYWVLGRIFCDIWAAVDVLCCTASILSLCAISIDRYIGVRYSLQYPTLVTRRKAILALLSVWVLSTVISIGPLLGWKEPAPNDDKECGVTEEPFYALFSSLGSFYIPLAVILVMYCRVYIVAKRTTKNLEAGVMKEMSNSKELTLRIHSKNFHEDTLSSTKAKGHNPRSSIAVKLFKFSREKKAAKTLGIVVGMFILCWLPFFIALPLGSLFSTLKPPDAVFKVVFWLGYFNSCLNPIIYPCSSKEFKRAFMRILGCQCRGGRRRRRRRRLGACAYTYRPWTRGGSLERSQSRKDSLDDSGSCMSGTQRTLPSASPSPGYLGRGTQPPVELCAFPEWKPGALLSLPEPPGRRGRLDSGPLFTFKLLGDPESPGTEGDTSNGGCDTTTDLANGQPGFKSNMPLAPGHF

[7] = target: T2, 3-oxo-5-alpha-steroid 4-dehydrogenase 1; assay: Inhibitory concentration on human 5-alpha reductase 1 isozyme
[8] = target: T6, 3-oxo-5-alpha-steroid 4-dehydrogenase 1 (Rattus norvegicus, UniProt P24008); assay: Binding affinity on rat 5-alpha reductase-1 isozyme
T6 sequence (P24008 whole entry): T3 sequence (P24008 whole entry)

[9] = target: T7, 3-oxo-5-alpha-steroid 4-dehydrogenase 2 (Rattus norvegicus, UniProt P31214); assay: Binding affinity on rat 5-alpha reductase-2 isozyme
T7 sequence (P31214 whole entry): T3 sequence (P31214 whole entry)

[10] = Dose (iv) for 20% reduction of mean blood pressure in rat (ID20) with the dose for 50% inhibition of norepinephrine-mediated contraction of proximal urethra (ID50) in cat; assay type: functional
[11] = as §1; assay type: functional
[12] = target: 3 beta-hydroxysteroid dehydrogenase/Delta 5-->4-isomerase type 1 (Homo sapiens, UniProt P14060); assay: Binding affinity on 3 beta-hydroxysteroid dehydrogenase
3 beta-hydroxysteroid dehydrogenase/Delta 5-->4-isomerase type 1, sequence (P14060 whole entry): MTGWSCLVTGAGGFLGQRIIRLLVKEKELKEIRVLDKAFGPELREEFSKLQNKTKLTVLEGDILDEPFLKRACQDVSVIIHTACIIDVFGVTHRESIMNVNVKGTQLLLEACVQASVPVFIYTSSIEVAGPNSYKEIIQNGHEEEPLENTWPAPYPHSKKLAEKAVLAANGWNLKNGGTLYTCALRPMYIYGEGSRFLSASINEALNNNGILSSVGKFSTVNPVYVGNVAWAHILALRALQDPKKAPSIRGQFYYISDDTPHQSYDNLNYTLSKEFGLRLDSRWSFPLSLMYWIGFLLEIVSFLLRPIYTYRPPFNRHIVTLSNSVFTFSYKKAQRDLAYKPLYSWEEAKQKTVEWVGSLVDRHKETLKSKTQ

IC50 [1]: < 0.1 nM
Ki [2]: 0.2 nM
Structure (SMILES): C[C@]12CCC(=O)C(Cl)=C1NCC1C2CC[C@@]2(C)C1CC[C@@H]2C(=O)Nc1cc(C(F)(F)F)ccc1C(F)(F)F (some centres not stated)

Ki [3]: > 20000 nM
Ki [4]: > 20000 nM
Structure (SMILES): CC(C)N(C(=O)c1ccc(CCC2CCC(=O)N(C)C2)cc1)C(C)C (configuration not stated)

IC50 [5]: 1.5 nM
IC50 [6]: 24 nM
Structure (SMILES): COc1ccccc1N1CCN(CCCC(=O)c2cccc3c(=O)c(C)c(-c4ccccc4)oc23)CC1
Ratio (Canis familiaris): 39

Ki [7]: > 2500 nM
Structure (SMILES): O=C(O)c1cc2cc(OCc3ccccc3)ccc2[nH]1

Ki [8]: 8 nM
Ki [9]: 10000 nM
Structure (SMILES): CN1C(=O)CC[C@@H]2c3ccc(Cl)cc3CC[C@H]21 [BEXLOSTERIDE]

Structure (SMILES): COc1ccccc1N1CCN(CCCNc2nccc(C(N)=O)n2)CC1
Ratio [10]: 31

IC50 [5]: 14 nM
IC50 [6]: 79 nM
Structure (SMILES): COc1ccccc1N1CCN(CCNC(=O)c2cccc3c(=O)c(C)c(-c4ccccc4)oc23)CC1
Ratio [11]: 14

IC50 [12]: 8.3 nM
Structure (SMILES): CC(C)(C)CCNC(=O)[C@H]1CCC2C3CNC4=CC(=O)CC[C@]4(C)C3CC[C@@]21C (some centres not stated)

IC50 [1]: < 0.1 nM
Ki [2]: 0.2 nM
Structure (SMILES): CC1=C2NCC3C(CC[C@@]4(C)C3CC[C@@H]4C(=O)Nc3cc(C(F)(F)F)ccc3C(F)(F)F)[C@@]2(C)CCC1=O (some centres not stated)
